# Laboratory results as given in patent US6514914B1, “Inhibition of phospholipase D” (priority 1999, dated 2003).
# Entries after “also recorded” stand apart in the source; their conditions may differ. Where two headings read alike, the source gives them in different places.
# Tests used:
# [1] = tested on: phospholipase D in sweet corn kernel; test: Phospholipase D activity by release of radiolabelled choline, fractions not distinguished; type: biochemical, Zea mays; settings: sweet corn kernel preparations, fraction not specified
# Protocol: Protein Extraction. Sweet corn (Zea mays L. cv Peaches and Cream) was used for this study. The kernels were obtained locally from a grocery store and stored frozen at −20° C. until it was used for protein extraction. […] The fraction comprising the starch granules was removed by centrifuging the samples at 2500×g for 10 minutes. […] The supernatant from this step was centrifuged at 105,000×g to pellet the microsomal membranes. The supernatant comprising the cytosol was subjected to ammonium sulphate fractionation at 30 and 60% saturation. The precipitated protein was collected by centrifugation at 15000×g and redissolved in 10 mM Tris-HCl pH 7.0 and dialyzed overnight with the same buffer, also containing 0.1 mM DTT, with two changes of 2 L each. […] All steps of protein extraction procedure were carried out at 4° C.
# Enzyme Assay. […] The basic assay mixture contained 0.1 M Tris-HCl (pH 7.5), 0.2 mM EGTA, membrane or cytosol protein (2.5 μg), and approximately 100,000 dpm of choline-labelled phosphatidylcholine in 0.1% (v/v) Triton-X 100 (0.01% final), to make a total volume of 1 ml. To study the regulation of PLD by alcohols, aldehydes and metal ions, the appropriate amounts of the reagent solutions were added to the basic reaction mixture. Similarly, citrate and Tris-HCl buffers were used to study the effect of pH on PLD activity. The reaction was terminated after 10 minutes by adding 100 μL of 4 N HCl followed by 1 mL of chloroform/methanol (2:1, v/v) and left overnight. The amount of [^3H]choline released during the reaction was determined by mixing a 0.5 ml aliquot of the aqueous phase directly into 5 ml of scintillation fluid (Ecolume, ICN) and determining the amount of radiolabel using a Beckman LS 6800 Scintillation counter (Beckman Instruments Inc.).
# Protein Extraction: Sweet corn (Zea mays L. cv Peaches and Cream) was used for this study. The kernels were obtained locally from a grocery store and stored frozen at −20° C. until used. Frozen kernels were homogenized in 0.1 M Tris-HCl buffer at pH 7.5, containing 1 mM dithiothreitol, I mM phenylmethanesulfonylfluoride, 2 mM EDTA and 1 mM EGTA. The homogenate was filtered through four layers of cheese clothe. After removing the debris, the homogenate was subjected to differential centrifugation to separate mitochondria, microsomes and cytosol. The fraction comprising starch granules was removed by centrifuging the samples at 2500×g for 10 min. The resulting supernatant was subjected to centrifugation at 15000×g to pellet the mitochondrial membrane fraction. The supernatant from this step was centrifuged at 105,000×g to pellet the microsomal membranes. The supernatant was subjected to ammonium sulfate fractionation at 30 and 60% saturation to precipitate the cytosolic proteins. The precipitated proteins were pelleted by centrifugation at 15000×g and dissolved in 10 mM Tris HCI, pH 7.5, and dialyzed overnight in the same buffer also containing 0.1 mM DTT. Resuspended microsomal, mitochondrial membrane preparation and the cytosolic proteins were stored at −80° C. until used for phospholipase D assays.
# Assay for Phospholipase D: Phospholipase D activity was determined by the liberation of choline from choline methyl labelled dipalmitoylphosphatidylcholine [L3-phosphatidyl (N-methyl-3H) choline 1,2-dipalmitoyl]. The basic assay mixture contained 0.1 M. Tris-HCl, pH 7.5, 0.2 mM EGTA, 1-2.5 ug of membrane or cytosolic protein (precipitated at 60% ammonium sulfate saturation) and 100,000 dpm of choline-labelled phosphatidylcholine in 0.1% Triton X-100 (final 0.01%), in a total volume of 1 ml. Hexanal and hexanol was added to the assay mixture and incubated for 5 min prior to the addition of substrate. The reaction was terminated after 10 min by the addition of 100 uL of 4N HCl, followed by 1 ml of chloroform: methanol (2:1 v/v) and left overnight.
# [2] = tested on: microsomal PLD of sweet corn kernel; test: Phospholipase D activity by release of radiolabelled choline, microsomal fraction; type: biochemical, Zea mays
# Protocol: (§1) Protein Extraction. Sweet corn (Zea mays L. cv Peaches and Cream) was used for this study. The kernels were obtained locally from a grocery store and stored frozen at −20° C. until it was used for protein extraction. Frozen kernels were homogenized in 0.1 m Tris-HCl buffer at pH 7.5 essentially as described by Pinhero et al. (1998), except that sucrose was not included in the homogenizing buffer. The mitochondrial, microsomal and the cytosolic fractions were collected by differential centrifugation (Pinhero et al., 1998). The fraction comprising the starch granules was removed by centrifuging the samples at 2500×g for 10 minutes. The resulting supernatant was subjected to centrifugation at 15,000×g to pellet the mitochondrial membrane fraction (Edwards and Gardestrom, 1987). The supernatant from this step was centrifuged at 105,000×g to pellet the microsomal membranes. The supernatant comprising the cytosol was subjected to ammonium sulphate fractionation at 30 and 60% saturation. The precipitated protein was collected by centrifugation at 15000×g and redissolved in 10 mM Tris-HCl pH 7.0 and dialyzed overnight with the same buffer, also containing 0.1 mM DTT, with two changes of 2 L each. Protein concentration was determined by the method of Bradford (1976) using bovine serum albumin as a standard. All steps of protein extraction procedure were carried out at 4° C.
# (§2) Enzyme Assay. […] activity was determined as described by Pinhero et al. (1998) by measuring the release of radiolabelled choline from L3-phosphatidyl(N-methyl-^3H) choline,1,2-dipalmitoyl at 23° C. The basic assay mixture contained 0.1 M Tris-HCl (pH 7.5), 0.2 mM EGTA, membrane or cytosol protein (2.5 μg), and approximately 100,000 dpm of choline-labelled phosphatidylcholine in 0.1% (v/v) Triton-X 100 (0.01% final), to make a total volume of 1 ml. To study the regulation of PLD by alcohols, aldehydes and metal ions, the appropriate amounts of the reagent solutions were added to the basic reaction mixture. Similarly, citrate and Tris-HCl buffers were used to study the effect of pH on PLD activity. The reaction was terminated after 10 minutes by adding 100 μL of 4 N HCl followed by 1 mL of chloroform/methanol (2:1, v/v) and left overnight. The amount of [^3H]choline released during the reaction was determined by mixing a 0.5 ml aliquot of the aqueous phase directly into 5 ml of scintillation fluid (Ecolume, ICN) and determining the amount of radiolabel using a Beckman LS 6800 Scintillation counter (Beckman Instruments Inc.).
# [3] = tested on: mitochondrial PLD of sweet corn kernel; test: Phospholipase D activity by release of radiolabelled choline, mitochondrial fraction; type: biochemical, Zea mays
# Protocol: as §1, §2
# [4] = tested on: cytosolic PLD of sweet corn kernel; test: Phospholipase D activity by release of radiolabelled choline, cytosolic fraction; type: biochemical, Zea mays
# Protocol: as §1, §2
# PLD = settings: animal systems; cited from earlier work
# [5] = tested on: PLD in leaf and root tissues of maize seedlings; settings: cited from earlier work
# phospholipase D = settings: reported in plants; cited from earlier work
# parsley leaves = test: Parsley leaf senescence, excised leaves incubated in the dark for fourteen days; settings: increasing amounts in 2.5 ml water with 0.001% Tween-20, fourteen days in the dark
# Protocol: Mature parsley leaves were excised and floated in water to randomize the leaves. After thorough washing 10 leaflets were incubated in petri plates lined with Whatman #1 filter paper and containing 2.5 ml of water containing various amounts of hexanal and 0.001% final Tween −20. Controls with water alone and Tween −20 were also incubated. The petri plates were incubated in the dark for fourteen days. The leaves were removed, chopped to fine pieces, and portions used for protein and pigment analyses. For protein analysis, a known amount of leaf segments (usually 0.6-0.7 g) were ground with 0.1 N NaOH (1 ml). After removing the debris by centrifugation, protein was determined in aliquots, using the dye-binding method by Bradford, 1976. To measure the pigments, leaf segments were extracted with 5 ml of 95% ethanol overnight in the dark. The absorbance readings were measured at […] to estimate chlorophyll a, at 647 nm for chlorophyll b and at […] for carotenoid. The data presented are the mean of two independent estimations from two sets of leaves incubated separately.
# [6] = alcohol added to the assay mixture
# [7] = increasing alcohol in the assay mixture
# [8] = acetaldehyde, concentration not stated (discussion)
# [9] = maximal stimulation, at 50 μM magnesium chloride
# [10] = 0.2 mM of added calcium (10 μM of free calcium)
# [11] = maximal stimulation, at 0.5 mM of added calcium, 0.2 mM EGTA in assay
molecule,measurement,setting,value
CCCCCC=O [hexanal],effect on PLD activity,[1],potent inhibition of PLD activity; also recorded: effective inhibitors of PLD activity
n-butanol,effect on microsomal PLD activity,[2]; [6],decline in activity
same,effect on mitochondrial PLD activity,[3]; [6],decline in activity
same,effect on cytosolic PLD activity,[4]; [7],decline in activity
same,effect on PLD activity,[1],marginal
[Cl-].[Na+] [sodium chloride],effect on microsomal PLD activity,[2]; monovalent salt up to 5 mM,remained nearly the same
same,effect on mitochondrial PLD activity,[3]; monovalent salt up to 5 mM,remained nearly the same
same,effect on cytosolic PLD activity,[4]; monovalent salt up to 5 mM,remained nearly the same
same,effect on PLD activity,[1],did not affect PLD activity substantially; also recorded: did not appear to have any major effects on PLD activity
CC=O [acetaldehyde],inhibition of microsomal PLD activity,[2]; 2% v/v acetaldehyde,80%
same,inhibition of microsomal PLD activity,[2]; [8],over 75%
same,inhibition of mitochondrial PLD activity,[3]; 2% v/v acetaldehyde,80%
same,inhibition of mitochondrial PLD activity,[3]; [8],over 75%
same,inhibition of cytosolic PLD activity,[4]; 2% v/v acetaldehyde,80%
same,inhibition of cytosolic PLD activity,[4]; [8],over 75%
"[Cl-].[K+] [KCl, potassium chloride]",effect on microsomal PLD activity,[2]; monovalent salt up to 5 mM,inhibited
same,effect on mitochondrial PLD activity,[3]; monovalent salt up to 5 mM,nearly similar activity with respect to their respective controls
same,effect on cytosolic PLD activity,[4]; monovalent salt up to 5 mM,nearly similar activity with respect to their respective controls
same,effect on PLD activity,[1],did not affect PLD activity substantially; also recorded: did not appear to have any major effects on PLD activity
CCO [ethanol],effect on microsomal PLD activity,[2],stimulation in the activity
same,stimulation of microsomal PLD activity,[2],50%
same,effect on mitochondrial PLD activity,[3]; [6],stimulation in the activity
same,stimulation of mitochondrial PLD activity,"[3]; maximal stimulation, at 0.25% ethanol (v/v)",100%
same,effect on cytosolic PLD activity,[4]; ethanol levels above 0.5%,inhibited
same,effect on cytosolic PLD activity,[4]; [7],marginal stimulation initially followed by a decline in activity
hydroxy hexenal,effect on PLD,PLD,promoters of PLD
[Cl-].[Cl-].[Mg+2] [magnesium chloride],stimulation of microsomal PLD activity,[2]; [9],~100%
same,stimulation of cytosolic PLD activity,[4]; [9],~100%
same,effect on PLD activity,[1],slightly higher than that of calcium ions
same,effect on PLD activity,[5],not stimulated
Lysophosphatidylethanolamine,inhibition of phospholipase D,phospholipase D,potent inhibitor of phospholipase D
CCCO [propanol],promotion in microsomal PLD activity,[2]; between 0.1 and 1% (v/v) propanol,20-25%
same,effect on mitochondrial PLD activity,[3]; [6],only a marginal increase
same,effect on cytosolic PLD activity,[4]; [7],initial promotion of cytosolic activity followed by a decline
same,effect on PLD activity,[1],marginal
[Ca+2] [calcium],stimulation of microsomal PLD activity,[2]; [10],~40%
same,stimulation of microsomal PLD activity,[2]; [11],40-50%
same,effect on mitochondrial PLD activity,"[3]; 0.5 mM of added calcium, 0.2 mM EGTA in assay",marginal stimulation
same,stimulation of cytosolic PLD activity,[4]; [10],~40%
same,stimulation of cytosolic PLD activity,[4]; [11],40-50%
same,effect on PLD activity,[1],marginally stimulated
same,effect on PLD activity,[5],not stimulated
CCCCCCO [hexanol],effect on PLD activity,[1],potent inhibition of PLD activity; also recorded: effective inhibitors of PLD activity
same,amount of chlorophyll in parsley leaves versus controls,parsley leaves,greater amounts of chlorophyll than controls
same,senescence or aging of parsley leaves,parsley leaves,less senescence or aging has occurred
